Assay results: US6713511B1, “Fatty acid derivatives” (priority 1998, dated 2004)
Read-outs that look alike come from different tables or passages of the source.

Tests used:
Format in all cases: in vivo, rat
[1] = tested on: rats with unilateral caudate nucleus (striatum) lesion
Excerpt: One of the major behavioral methods to measure the increase in dopamine activity in the brain is rotational behavior. Dopamine is the neurotransmitter in the striatum. The striatum controls motor movements and motor integration. In the brain there are two striata, in the right and left hemispheres, respectively. Unilateral ablation of a striatum will result in walking in circles, as the intact striatum is still functioning; Ungerstadt, U. et al., Brain Res., 1970, 24: 485-492, created a lesion in one striatum and measured the effect on rotational behavior. Since then, this technique has been used to screen molecules, such as stimulants or potential anti-Parkinson drugs, which induce increase in dopaminergic activity.
Groups of 6 male Sprague-Dawley rats (Charles River Laboratories, Wilmington, Mass.) weighing 100-120 g, were housed 6 per cage in a well-ventilated and air-conditioned room of ambient temperature (22±2° C.) and relative humidity 45%. The rats had access to food (Big Red Laboratory Chow, Agway Inc., Syracuse, N.Y.) and water ad libitum. Light (“Vita Light”, Duro Test Corp., North Bergen, N.J.) was provided between 9 am and 9 pm.
All surgery was performed under anesthesia (sodium pentobarbital, 50 mg/ml, as required). The rats were placed in a Kopf stereotaxic instrument (model #900). Unilateral anodal electrolytic lesions were made with constant current supply (lesion-producing device #58040, Stoelting, Chicago, Ill.). Current (2.0 mV for 10 seconds) was passed through stainless steel insulated wire pe 32, 0.008 inches diameter (“Formax”, Stoelting, Chicago, Ill.), bared only at the tip. […]
Rotational behavior was tested in a rotameter, modified from the design of Ungerstedt et al., 1970. […] The potentiometer (preamplifier 8805 A) measured and recorded the changes in the amount of current which passed through it, resulting from the rotational movements of the rats. […]
Each rat was placed in the rotameter and treated with an i.p. injection of saline or (I) (10 mg/kg) as prepared above. […] The frequency of turning was measured between 30-40 minutes post-injection. […]

[2] = tested on: rats challenged with Ro4-1284; assay: Ro4-1284-induced blephrospasm model
Excerpt: This is an involuntary spasm of the orbicular muscles of the eye, causing forceful closure of the eyes. Symptomatically there is a significant increase in the rate of eyelid closures/min. This phenomenon is regarded as a type of dystonia, a decrease in the brain dopamine level being the etiology of this syndrome. Ro4-1284 is a powerful dopamine-depleting agent. In saline-treated animals, Ro4-1284 is able to induce an animal model of benign essential blephrospasm. Groups of rats similar to those described above were treated daily for 14 days with 25 mg/kg (II), i.p., and then were challenged with a dose of 40 mg/kg Ro4-1284, i.p. The results of this test were shown in the following Table.

[3] = tested on: rats with unilateral caudate nucleus (striatum) lesion; assay: Rotational behavior in rats with unilateral striatum lesion, testing of (II)
Method: Three groups of 12 male Sprague-Dawley rats (Charles River Laboratories, Wilmington, Mass.) weighing 100-150 g, were housed 6 per cage in a well-ventilated and air-conditioned room of ambient temperature (22±2° C.) and relative humidity 45%. The rats had access to food (Big Red Laboratory Chow, Agway Inc., Syracuse, N.Y.) and water ad libitum. Light (“Vita Light”, Duro Test Corp., North Bergen, N.J.) was provided between 9 am and 9 pm. These groups were used for rotational study, the dosage of (II) being 100 mg/kg, i.p.
One group served as a control group (no treatment), a second group was a sham operated group, and a third group was the operated group. All surgery was performed under anesthesia (sodium pentobarbital, 50 mg/ml, as required). The rats were placed in a Kopf stereotaxic instrument (model #900). Unilateral anodal electrolytic lesions were made with constant current supply (lesion-producing device #58040, Stoelting, Chicago, Ill.). Current (2.0 mV for 10 seconds) was passed through stainless steel insulated wire pc 32, 0.008 inches diameter (“Formax”, Stoelting, Chicago, Ill.), bared only at the tip. The coordinates (modified from Konig and Klippel, 1963) for caudate nucleus lesion were: A 8.5, L 2.2, V+1.8. The lesions were made in the left side of the brain. Sham operated animals were treated as lesioned animals, i.e. they were placed in the stereotaxic instrument and an electrode was placed in the brain, but without passing electric current therethrough. After surgery, each rat was placed in an individual cage. Tests were made at day 10 after surgery. At the end of the experiment, each rat was given an overdose of pentobarbital and perfused with saline, followed by 10% formalin. Brains were removed and serial coronal slices were made at 40 micra, using a freezing microtome. Representative slides were stained with Cresyl Violet for verification of the lesion.
Details of the procedure with regard to determination of rotational behavior were substantially as described above for testing (I).

[4] = lesioned rats, 100 mg/kg i.p., day 10 after surgery

## CC/C=C\C/C=C\C/C=C\CCCCCCCC(=O)N[C@@H](Cc1ccc(O)cc1)C(=O)O [(I), N-(α-linolenoyl)tyrosine]
[1]; lesioned rats, 10 mg/kg i.p., 30-40 minutes post-injection, day 4 after surgery, increased from 4 cycles/minute
  rate of rotational motion: 40 cycles/minute
[1]; rat, in vivo
  crossing of the blood-brain barrier: cross the blood-brain barrier
[1]; rat, in vivo, ip, 10 mg/kg
  abnormal behavior (stereotype): not found

## CC/C=C\C/C=C\C/C=C\CCCCCCCC(=O)N[C@@H](Cc1ccc(O)cc1)C(=O)OC [(II), N-β-linolenyltyrosine Methyl Ester]
[2]; 25 mg/kg (II) i.p. daily for 14 days, then Ro4-1284 40 mg/kg i.p., 30 minutes after Ro4-1284, p < 0.001
  rate of eyelid blinking/min.: 5.00 ± 1.95 min⁻¹
[3]; conclusion drawn from the behavioral testing
  crossing of the blood-brain barrier: cross the blood-brain barrier
[3]; [4]
  % L: 98%
  % R: 2%
  L (turns to the left): 98
  L + R: 100
  R (turns to the right): 2

## CCC1(O)CC2c3cc(OC)c(OC)cc3CCN2CC1CC(C)C (centres unmarked) [Ro4-1284, reference compound]
[2]; Ro4-1284 40 mg/kg i.p. alone, 30 minutes after treatment with Ro4-1284
  rate of eyelid blinking/min.: 19.08 ± 3.4 min⁻¹
